{
  "source": "patent US6555545B2",
  "about": "“Adenosine A2A receptor antagonists for treating and preventing hepatic fibrosis, cirrhosis and fatty liver” (New York University, priority 2000, dated 2003)",
  "key": {"[1]": {"test_system": "rat hepatic stellate cells (rHSC)", "test": "Collagen production by immortalized rat hepatic stellate cells (14C-proline pulse, phosphorimager)", "type": "cell-based", "settings": "for collagen production, % of control: n=4; for effect of antagonist on CGS-21680-mediated increase in collagen production (in words): rHSC, CSC 10 micro-M, preincubation four hours", "protocol": "To determine whether an increase in adenosine release would promote collagen production, immortalized rat hepatic stellate cells (rHSC, gift from Dr. S. L. Friedman) were incubated with agonists and antagonists at various adenosine receptors, after which collagen production was quantitated. Rat hepatic stellate cells were treated with […] at various concentrations with or without the addition of 10 micro-M adenosine A2A receptor antagonist CSC following pulsing with ^14C-proline. The collagen was extracted by ethanol precipitation and quantified following phosphorimager exposure.\nThe cAMP/protein kinase A pathway is known to mediate adenosine A2A receptor signal transduction. The effect of protein kinase A inhibition was studied on CGS-21680-mediated collagen production in rHSC. Rat HSC were treated with 10 micromolar CGS-21680 for four hours at 37° C., 5% CO2, with or without the addition of 10 micromolar KT-5720, a protein kinase A inhibitor, and collagen production was extracted by ethanol precipitation and quantified following phosphoimager exposure."}, "[2]": {"test_system": "human hepatic stellate cells (LX-1)", "test": "Collagen production by immortalized human hepatic stellate cells", "type": "cell-based", "protocol": "Since A2A receptor selectivity of CGS-21680 decreases with increasing concentration, and recruitment of A2B receptor activity is observed with CGS-21680 concentrations above 100 nM, agonistic effects in A2B receptors by high-dose CGS-21680 is likely to be responsible for the decrease in collagen production. This is consistent with Dubey's observations on cardiac fibroblasts that adenosine A2B receptor activation decreases collagen synthesis, Dubey et al., Hypertension 1998; 31(4):943-8. Alternatively, CGS-21680-induced changes in collagen production may be the result of alterations in the expression of collagenase/metalloproteinases (MMP) or their inhibitors, tissue inhibitors of metalloproteinases, TIMP. Adenosine, acting through one of its receptors, most likely the A2B receptor, has been noted to alter metalloproteinase expression (Boyle et al., Arthritis Rheum 1996:39(6):923-30."}, "HepG2 cells": {"test_system": "HepG2 cells", "test": "Adenosine release from HepG2 cells, quantitated by HPLC", "settings": "for effect on adenosine release (in words): pharmacologically relevant concentrations, ethanol up to 80 mg/dl"}},
  "note": "pEC50: −log10 of the molar value. “Also recorded” adds a separate entry of the source.",
  "data": [
    {"smiles": "CCNC(=O)[C@H]1O[C@@H](n2cnc3c(N)nc(NCCc4ccc(CCC(=O)O)cc4)nc32)[C@H](O)[C@@H]1O", "note": "[CGS-21680]", "values": [
      {"measurement": "collagen production, % of control", "setting": "[1]; 10 micromolar CGS-21680 alone, four hours", "value": "339±99 % of control"},
      {"measurement": "increase in collagen production over control", "setting": "[1]; concentration of 10 mM as printed, n=6, p<0.001", "value": "3223±917", "unit": "%"},
      {"measurement": "pEC50", "setting": "[1]; cultured rat stellate cell line, dose-dependent, read-out: EC50 for promotion of collagen synthesis and release", "value": "~6.52"},
      {"measurement": "maximal promotion of collagen synthesis and release", "setting": "[1]; cultured rat stellate cell line, p<0.004", "value": "≤ 20", "unit": "fold"},
      {"measurement": "effect on collagen production (in words)", "setting": "[2]; CGS-21680 concentrations above 100 nM", "value": "collagen production by LX-1 decreases"},
      {"measurement": "effect on collagen production (in words)", "setting": "[2]; CGS-21680 concentrations up to 100 nM, dose dependent", "value": "increased collagen production"}
    ]},
    {"smiles": "Cn1c(=O)c2c(nc(C=Cc3cccc(Cl)c3)n2C)n(C)c1=O", "note": "[CSC, 8-(3-chlorostyryl)-caffeine]", "values": [
      {"measurement": "effect of antagonist on CGS-21680-mediated increase in collagen production (in words)", "setting": "[1]", "value": "almost completely blocks; also recorded: almost completely abrogated"},
      {"measurement": "effect of antagonist on CGS-21680-induced collagen production (in words)", "setting": "[2]", "value": "blocked by CSC"}
    ]},
    {"smiles": "CCCn1c(=O)c2[nH]c(C3CCCC3)nc2n(CCC)c1=O", "note": "[DPCPX, 8-cyclopentyldipropylxanthine]", "values": [
      {"measurement": "effect of antagonist on CGS-21680-mediated increase in collagen production (in words)", "setting": "[1]", "value": "little effect; also recorded: minimal inhibitory effects"}
    ]},
    {"smiles": "CCCCCCOC(=O)[C@]1(O)C[C@@H]2O[C@@]1(C)n1c3ccccc3c3c4c(c5c6ccccc6n2c5c31)C(=O)NC4", "note": "[KT-5720]", "values": [
      {"measurement": "collagen production, % of control", "setting": "[1]; 10 micromolar CGS-21680 plus 10 micromolar KT-5720, four hours", "value": "181±69 % of control"},
      {"measurement": "suppression of the CGS-21680-mediated increase in collagen production", "setting": "[1]; 10 micromolar KT-5720 with 10 micromolar CGS-21680, four hours, n=4, p<0.013", "value": 47, "unit": "%"}
    ]},
    {"smiles": "CCCn1c(=O)[nH]c(=O)c2[nH]cnc21", "note": "[enprofylline]", "values": [
      {"measurement": "effect of antagonist on CGS-21680-mediated increase in collagen production (in words)", "setting": "[1]", "value": "little effect; also recorded: minimal inhibitory effects"}
    ]},
    {"smiles": "CCO", "note": "[ethanol]", "values": [
      {"measurement": "increase in adenosine release from control", "setting": "HepG2 cells; ethanol 40 mg/dl, three hours", "value": "four-fold"},
      {"measurement": "adenosine release", "setting": "HepG2 cells; ethanol 40 mg/dl, three hours, n=6, p<0.001 vs control 37±35 nM", "value": "206 ± 79", "unit": "nM"},
      {"measurement": "toxicity to HepG2 cells", "setting": "HepG2 cells; ethanol concentrations greater than 80 mg/dl", "value": "toxic to HepG2 cells"},
      {"measurement": "effect on adenosine release (in words)", "setting": "HepG2 cells", "value": "increased adenosine release; also recorded: promote adenosine release"},
      {"measurement": "effect of ethanol on adenosine release from methotrexate-treated HepG2 cells", "setting": "HepG2 cells; relevant concentrations of methotrexate, data not shown", "value": "further increased adenosine release"}
    ]},
    {"smiles": "CN(Cc1cnc2nc(N)nc(N)c2n1)c1ccc(C(=O)N[C@@H](CCC(=O)O)C(=O)O)cc1", "note": "[methotrexate]", "values": [
      {"measurement": "increase in adenosine release vs control", "setting": "HepG2 cells; methotrexate 10 nM, three hours", "value": "six-fold"},
      {"measurement": "adenosine release", "setting": "HepG2 cells; methotrexate 10 nM, three hours, n=6, p<0.001 vs control 41±39 nM", "value": "242 ± 82", "unit": "nM"},
      {"measurement": "effect on adenosine release (in words)", "setting": "HepG2 cells", "value": "increased adenosine release; also recorded: promotes adenosine release"}
    ]}
  ]
}
